In brackets after ≈: the same amount, converted by molar mass.
What was measured:
[1] = UV absorption in % at 300, 280 and 240 nm (Table 2); assay type: physicochemical
From the text: The following Table illustrates the ultraviolet absorption characteristics at wave lengths of 300 nm, 280 nm, and 240 nm for the compounds of the invention, as well as other known compounds which have been used in the past as sun protective agents.

[2] = Solubility in water at 20°C (Table 3); assay type: physicochemical
[3] = background statement; cited from earlier work
[4] = UV spectrum and extinction coefficients in water (Table I); assay type: physicochemical
[5] = pH of solution (Table I); assay type: physicochemical; settings: c=0.005
From the text: The following Table 1 lists additional compounds of the invention along with their physical properties.
Molecular Brutto N(%) pH UV- Extinction coefficients

Molecule	UV Absorption in %, 240 nm [1] [%]	UV Absorption in %, 280 nm [1] [%]	UV Absorption in %, 300 nm [1] [%]	other results
O=c1cc[nH]c(=O)[nH]1 [Uracil]	90	45	42	solubility [2]: 2000 µg/mL (≈ 17.8 mM)
Nc1ccc(C(=O)O)c(O)c1 [4-Aminosalicylic acid]	98.5	99	99	
Nc1cc[nH]c(=O)n1 [Cytosine]	100	98	95	solubility [2]: 4000 µg/mL (≈ 36 mM)
Nc1ccc(C(=O)O)cc1 [p-Aminobenzoic acid]	91	100	100	ultraviolet absorption of known agents (in words) [3]: insufficient absorption in the ultraviolet portion of the spectrum
Nc1nc2nc[nH]c2c(=O)[nH]1 [Guanine]	73	62	11	
Nc1ccccc1C(=O)O [Anthranilic acid(o-Aminobenzoic acid), o-Aminobenzoic acid]	99	48	84	
Adenosine-5'-mono-phosphoric acid-(Na-tryptophane)2 [No. 5]				UV-spectrum λmax [4]: 220 mμ; mol.Ext.coeff. ε ([4]; c=0.005, d-l): 320000±4%; Extinction coefficients E250/E260 ([4]; c=0.005, d-l, ratio): 0.76; Extinction coefficients E280/E260 ([4]; c=0.005, d-l, ratio): 0.67; Extinction coefficients E290/E260 ([4]; c=0.005, d-l, ratio): 0.33; pH [5]: 7.0
Nc1cc(C(=O)O)c(O)c(S(=O)(=O)O)c1 [5-Amino-3-sulfosalicylic acid-Na2]	87	0	26	
O=c1ccn([C@@H]2O[C@H](COP(=O)(O)O)[C@@H](O)[C@H]2O)c(=O)[nH]1 [Uridine-5'-monophosphoric acid-Na2]	70	55	0	
Nc1ccn([C@@H]2O[C@H](COP(=O)(O)O)[C@@H](O)[C@H]2O)c(=O)n1 [Cytidine-5'-monophosphoric acid-Na2]	86	88	3	
Cytidine-5'-monophosphoric acid-(o-aminobenzoic acid)2 Na2	98	79	55.5	
O=c1[nH]cnc2nc[nH]c12 [Hypoxanthine]	100	65	6	
Nc1ncnc2nc[nH]c12 [Adenine]	100	52	14	solubility [2]: 840 µg/mL (≈ 6.22 mM)
O=C(O)c1ccccc1O [Salicylic acid]	98	74	94	
Nc1ncnc2c1ncn2[C@@H]1O[C@H](COP(=O)(O)O)[C@@H](O)[C@H]1O [Adenosine-5'-monophosphoric acid-Na2]	80	8	6	

Source: patent publication US3937809A, “Addition compound of a nucleotide and an amino acid and the use thereof in protection against actinic radiation” (priority 1974, dated 1976)
